Assay results as given in PMC8835475, “Salviolone from Salvia miltiorrhiza Roots Impairs Cell Cycle Progression, Colony Formation, and Metalloproteinase-2 Activity in A375 Melanoma Cells: Involvement of P21(Cip1/Waf1) Expression and STAT3 Phosphorylation” (International Journal of Molecular Sciences, 2022).

Assays:
MeWo melanoma cell line = test: SRB cell viability assay in MeWo cells; format: cell-based, human; details: for inhibition of melanoma cell viability: 20 µM; for inhibition of melanoma cell viability / EC50: 72 h; for EC50: Homo sapiens, read-out: EC50 useful in diminishing cell viability; for EC50 / viability reduction in melanoma cells: SRB; for viability reduction in melanoma cells: 40–60 µM
Description: In preliminary experiments, the evaluation of cell viability at different time after compound administration was carried out with sulforhodamine B (SRB) assay. Indeed, after 24-, 48-, and 72-h treatment, an evident time dependence in the inhibition of cell growth was registered (data not shown). Thus, to evaluate A375 and MeWo cell viability, we decided to perform further SRB experiments with each compound only after 72 h.
(§1) Human MeWo (HTB-65) and A375 (CRL-1619) melanoma cell lines as well as the normal human epidermal melanocyte (NHEM) (PCS-200-013) cell line (ATCC, Manassas, VA, USA) were cultured at 37 °C under 5% CO2 in a humidified atmosphere. Roswell Park Memorial Institute 1640 medium (RPMI, Gibco, Ref.21875, Thermo Scientific, Waltham, MA, USA) was used to culture MeWo cells, while Dulbecco’s Modified Eagle Medium (DMEM, Gibco, Ref. 61965, Thermo Scientific, Waltham, MA, USA) was used for A375 and NHEM cell lines. The culture media were supplemented with 10% fetal bovine serum (FBS, Gibco, Thermo Scientific, Waltham, MA, USA) plus 1% Antibiotic Antimycotic Solution (Gibco, Thermo Scientific). The MEK1 inhibitor U0126 (CAY-70970) and the PI3K inhibitor LY294002 (CAY-70920) were provided by Cayman Chemical, Ann Arbor, MI, USA.
(§2) Melanoma MeWo and A375 cells or NHEM were seeded in 96-well plates (5.0 × 10^3 cells/well for MeWo cells and 2.9 × 10^3 cells/well for A375 or NHEM). After 24-h culture, the cells were treated with different concentrations of compounds 1–7. After 72-h treatment, the cells were fixed by adding 25 µL/well of 50% (w/v) TCA directly into the culture medium. The plates were incubated at 4 °C for 1 h, washed four times with ddH2O, and dried at RT. Staining was performed by adding 50 µL/well of 0.04% (w/v) sulforhodamine B (SRB) sodium salt solution (Sigma-Aldrich, Milan, Italy). After 1-h incubation at RT, the plates were rinsed with 1% HAc and air-dried. SRB was solubilized in a 10 mM Tris-base solution pH 10.5 and Abs492 measured in the plate reader TECAN NanoQuant Infinite M200 Pro (Tecan Group Ltd., Männedorf, Switzerland). Six replicates for each condition/data point were performed.

[1] = tested on: normal human epithelial melanocyte (NHEM) cell line; test: SRB cell viability assay in NHEM cells; format: cell-based; details: for effect on NHEM viability: 10–20 µM; for reduction of NHEM viability: 40–60 µM
Description: as §1, §2

pRb = test: Immunoblot of pRb in A375 cells; format: cell-based, human; details: A375, 20 µM, 48 or 72 h
Description: (§3) A375 cells were seeded in 6 cm Petri dishes (190 300 cell/dish) and treated with different compounds at 10 or 20 μM. After 48- or 72-h treatment, the cells were scraped using warm 1× sample buffer (2% SDS, 10% glycerol, 50 mM Tris-HCl, 1.75% β-mercaptoethanol, and bromophenol blue) and boiled at 99 °C for 10 min. Total protein extracts were kept at −80 °C until use.
(§4) Protein extracts were analyzed with a 7.5 or 10% polyacrylamide SDS-PAGE and transferred to a polyvinylidene difluoride membrane (PVDF, Thermo Fisher Scientific, Waltham, MA, USA). The membranes were blocked at RT for 1 h with TBST buffer (10 mM Tris-HCl pH 7.5, 100 mM NaCl, 0.1% Tween20) containing 4% Milk (Formulat). […] Immuno-detection was carried out with an ECL kit (GE-Healthcare, Little Chalfont, UK), and the chemiluminescence signals were detected with ChemiDoc (Bio-Rad, Hercules, CA, USA).

pCdk2 = test: Immunoblot of pCdk2 in A375 cells; format: cell-based, human; details: A375, 20 µM, 48 or 72 h
Description: as §3, §4

pSer15-P53 (pP53) = test: Immunoblot of pSer15-P53 in A375 cells; format: cell-based, human; details: A375, 20 µM, vs untreated
Description: as §3, §4

[2] = tested on: Tyr705-STAT3 phosphorylation; test: Immunoblot of p-Tyr705-STAT3 in A375 cells; format: cell-based, human; details: A375, 20 µM; for STAT3 activity (tyrosine and serine phosphorylation): 48 h; for Tyr705-STAT3 phosphorylation: 72 h, vs untreated cells
Description: as §3
(§5) Protein extracts were analyzed with a 7.5 or 10% polyacrylamide SDS-PAGE and transferred to a polyvinylidene difluoride membrane (PVDF, Thermo Fisher Scientific, Waltham, MA, USA). The membranes were blocked at RT for 1 h with TBST buffer (10 mM Tris-HCl pH 7.5, 100 mM NaCl, 0.1% Tween20) containing 4% Milk (Formulat). Then, they were incubated on a shaker, overnight (ON) at 4 °C, with 5% BSA solution containing primary antibodies against p-Tyr705-STAT3 (#9145, 1:1000), pRb (#8516, 1:2000), pERK (#4370, 1:1000), pAkt (#4060, 1:2000), pSer15-P53 (#9286, 1:2000) (Cell Signaling Technology, Danvers, […], USA), Akt (GTX121937, 1:3000), ERK (GTX134452, 1:6000), Cyclin A2 (GTX-103042, 1:3000), p-Thr160Cdk2 (GTX-133862, 1:3000), p21 (GTX-629543, 1:3000) (Genetex, Alton Pkwj Irvine, CA, USA), p53 (Sc-263, 1:1000), STAT3 (Sc-482, 1:1000), and p-Ser727-STAT3 (Sc-136193, 1:1000) (Santa Cruz Biotechnology, Dallas, TX, USA). The membranes were washed three times with TBST buffer for 30 min and then incubated for 1 h with a horseradish-peroxidase-conjugated secondary antibody (anti-rabbit 1:6000, Genetex), (anti-mouse, 1:4000, Cell Signaling Technology, Danvers, […], USA). They were washed another three times for 30 min with TBST buffer. All protein extracts were normalized with a β-actin protein antibody (GTX-124214, 1:10,000; Genetex, Alton Pkwj Irvine, CA, USA). Immuno-detection was carried out with an ECL kit (GE-Healthcare, Little Chalfont, UK), and the chemiluminescence signals were detected with ChemiDoc (Bio-Rad, Hercules, CA, USA).

p-Ser727-STAT3 = test: Immunoblot of p-Ser727-STAT3 in A375 cells; format: cell-based, human; details: A375, 20 µM, 72 h
Description: as §3, §4

pERK1/2 = test: Immunoblot of pERK1/2 in A375 cells; format: cell-based, human; details: A375, 20 µM, 72 h; declined in control
Description: as §3, §5

pAkt = test: Immunoblot of pAkt in A375 cells; format: cell-based, human; details: A375, 20 µM, 72 h; declined in control
Description: as §3, §5

A375 melanoma cells = test: Soft agar colony formation assay; format: cell-based, human; details: A375, 5 and 10 µM, 21-day culture
Description: Before seeding, 6-well plates were prepared with soft agar, as follows: the bottom layer was filled with 1% low-gelling temperature agarose and 2X DMEM, supplemented with 20% FBS and 2% Antibiotic Antimycotic Solution (Gibco, BRL Invitrogen Corp., Carlsbad, CA, USA). After 30 min, cells (5000 cell/well) were suspended in 0.6% agarose and 2X DMEM supplemented with 20% FBS and 2% Antibiotic Antimycotic Solution (Gibco, BRL Invitrogen Corp., Carlsbad, CA, USA) and placed over the 0.5% agarose layer. Then, either cryptotanshinone (4) or salviolone (7) at 5–10 μM was added directly into each well and 100 μL of fresh media was added twice a week for 3 weeks. The semi-solid cultures were performed in triplicate and images captured.

SMILES | inhibition of melanoma cell viability (MeWo melanoma cell line) | EC50 (MeWo melanoma cell line) | viability reduction in melanoma cells (MeWo melanoma cell line) | effect on NHEM viability [1] | reduction of NHEM viability [1] | phosphorylation of Rb (pRb) expression level (pRb) | pCdk2 (active form of Cdk2) expression level (pCdk2) | pSer15-P53 (pP53) expression / P53 phosphorylation level (pSer15-P53 (pP53)) | STAT3 activity (tyrosine and serine phosphorylation) [2] | Tyr705-STAT3 phosphorylation [2] | p-Ser727-STAT3 level (p-Ser727-STAT3) | pERK1/2 expression level (pERK1/2) | pAkt expression level (pAkt) | number and dimension of colonies formed on soft agar (A375 melanoma cells)
C[C@H]1COC2=C1C(=O)C(=O)c1c2ccc2c1CCCC2(C)C [Compound 4, cryptotanshinone] | about 50% | 17 µM | 70–80% | did not affect | 20% | slightly reduced | slightly reduced | no significant increase | did not significantly change | significant reduction | increase | remained high | remained high | decreased
Cc1cc2ccc3c(c2cc(O)c1=O)CCCC3(C)C [Compound 7, salviolone] | about 50% | 22 µM | 70–80% | did not affect | 20% | strongly reduced | strongly reduced | higher | did not significantly change | significant reduction | increase | remained high | remained high | decreased
